Measured values taken from ChEMBL document CHEMBL3600333, “Optimization of a Stable Linker Involved DEVD Peptide-Doxorubicin Conjugate That Is Activated upon Radiation-Induced Caspase-3-Mediated Apoptosis” (J Med Chem, 2015).
Calls of active or inactive are those of the source. The calls are words filed in the database; no cut-off is given here. Numbered stars: 1 amine (or outer) side, 2 acyl side, 3 side chain; on linkers, the order of the positions; unused ones are H or OH. Square brackets hold non-standard residues; d marks the D form. Peptide text beside a SMILES is read from it. * marks the point of attachment. Doxorubicin(3'-N) = COc1cccc2c1C(=O)c1c(O)c3c(c(O)c1C2=O)C[C@@](O)(C(=O)CO)C[C@@H]3O[C@H]1C[C@H](N*)[C@H](O)[C@H](C)O1; Mal(S(CH2)2NH)(CH2)5CO = O=C1CC(SCCN[*:1])C(=O)N1CCCCCC(=O)[*:2]

What was measured:
MDA-MB-231 [1] = assay: Cytotoxicity against human MDA-MB-231 cells assessed as cell viability after 48 hrs by MTT assay; assay type: functional, cell-based; conditions: for IC50: MDA-MB-231, 48 h
[2] = Drug uptake in nucleus of human MDA-MB-231 cells at 10 uM after 18 hrs by DAPI staining-based confocal laser scanning microscopic analysis; assay type: ADME, cell-based; conditions: mda-mb-231, 18 h
[3] = Drug uptake in cytoplasm of human MDA-MB-231 cells at 10 uM after 18 hrs by DAPI staining-based confocal laser scanning microscopic analysis; assay type: ADME, cell-based; conditions: mda-mb-231, 18 h
[4] = Octanol-water partition coefficient, log P of the compound at 100 ug after 3 hrs by shake-flask method; assay type: physicochemical
[5] = Retention time of the compound treated with (6S,9S,12S,15S,18S)-1,6-diamino-12-(2-carboxyethyl)-9-(carboxymethyl)-18-(2-(1-(6-((2S,3S,4S,6R)-3-hydroxy-2-methyl-6-((1S,3S)-3,5,12-trihydroxy-3-(2-hydroxyacetyl)-10-methoxy-6,11-dioxo-1,2,3,4,6,11-hexahydrotetracen-1-yloxy)tetrahydro-2H-pyran-4-ylamino)-6-oxohexyl)-2,5-dioxopyrrolidin-3-ylthio)ethylcarbamoyl)-1-imino-15-isopropyl-7,10,13,16-tetraoxo-2,8,11,14,17-pentaazaicosan-20-oic acid at 100 uM by HPLC analysis in presence of recombinant human caspase-3; assay type: physicochemical
MDA-MB-231 [6] = assay: Induction of apoptosis in human MDA-MB-231 cells assessed as upregulation of cleaved caspase-3 expression after 48 hrs by Western blot analysis; assay type: functional, cell-based
MDA-MB-231 [7] = assay: Induction of apoptosis in human MDA-MB-231 cells assessed as downregulation of procaspase-3 expression at 1 to 100 uM after 48 hrs by Western blot analysis; assay type: functional, cell-based
[8] = Retention time of the compound at 100 uM after 60 mins by HPLC analysis in absence of recombinant human caspase-3; assay type: physicochemical; conditions: 1 h
[9] = Prodrug conversion assessed as 6-(3-(2-aminoethylthio)-2,5-dioxopyrrolidin-1-yl)-N-((2S,3S,4S,6R)-3-hydroxy-2-methyl-6-((1S,3S)-3,5,12-trihydroxy-3-(2-hydroxyacetyl)-10-methoxy-6,11-dioxo-1,2,3,4,6,11-hexahydrotetracen-1-yloxy)tetrahydro-2H-pyran-4-yl)hexanamide formation at 100 uM after 60 mins by HPLC analysis in absence of recombinant human caspase-3; assay type: physicochemical; conditions: 1 h
[10] = Stability of the compound at 100 uM after 60 mins by HPLC analysis in absence of recombinant human caspase-3; assay type: physicochemical; conditions: 1 h
Caspase-3 = biological target: T1, Caspase-3 (Homo sapiens, UniProt P42574); assay: Prodrug conversion assessed as recombinant human caspase-3-mediated compound 8 formation at 100 uM after 60 mins by HPLC analysis in presence of caspase-3 inhibitor Ac-DEVD-CHO; assay type: ADME; conditions: 1 h
T1 sequence (P42574 whole entry): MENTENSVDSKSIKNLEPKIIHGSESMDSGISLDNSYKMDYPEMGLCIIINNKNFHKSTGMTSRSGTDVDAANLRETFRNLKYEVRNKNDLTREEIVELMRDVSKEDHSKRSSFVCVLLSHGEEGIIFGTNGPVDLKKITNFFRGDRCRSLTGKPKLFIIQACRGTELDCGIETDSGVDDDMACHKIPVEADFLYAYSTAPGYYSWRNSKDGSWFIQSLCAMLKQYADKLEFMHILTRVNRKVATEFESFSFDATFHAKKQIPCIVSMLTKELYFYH

MDA-MB-231 [11] = assay: Cytotoxicity against human MDA-MB-231 cells assessed as cell viability up to 10 uM after 48 hrs by MTT assay in absence of recombinant human caspase-3; assay type: functional, cell-based
MDA-MB-231 [12] = assay: Cytotoxicity against human MDA-MB-231 cells assessed as cell viability at 100 uM after 48 hrs by MTT assay in absence of recombinant human caspase-3; assay type: functional, cell-based
MDA-MB-231 [13] = assay: Cytotoxicity against human MDA-MB-231 cells assessed as cell viability at 0.1 to 100 uM after 48 hrs by MTT assay in presence of recombinant human caspase-3; assay type: functional, cell-based
[14] = Drug uptake in nucleus of human MDA-MB-231 cells assessed as doxorubicin moiety level at 100 uM using cyanine5.5-labeled compound after 1 hr by DAPI staining-based confocal laser scanning microscopic analysis in presence of recombinant human caspase-3; assay type: ADME, cell-based; conditions: mda-mb-231, 1 h
[15] = Drug uptake in cytoplasm of human MDA-MB-231 cells assessed as DEVD moiety level at 100 uM using cyanine5.5-labeled compound after 1 hr by DAPI staining-based confocal laser scanning microscopic analysis in presence of recombinant human caspase-3; assay type: ADME, cell-based; conditions: mda-mb-231, 1 h
MDA-MB-231 [16] = assay: Cytotoxicity against human MDA-MB-231 cells assessed as decrease in cell viability at 5 uM with 5 Gy linear X-ray treatment after 24 hrs by MTT assay; assay type: functional, cell-based
MDA-MB-231 [17] = assay: Cytotoxicity against human MDA-MB-231 cells assessed as decrease in cell viability at 5 uM with 5 Gy linear X-ray treatment measured at 48 hrs by MTT assay (reference value: 53%); assay type: functional
[18] = Drug uptake in nucleus of human MDA-MB-231 cells assessed as doxorubicin moiety level at 5 uM preincubated for 24 hrs followed by exposure to 5 Gy linear X-ray measured at 6 hrs by DAPI staining-based fluorescence microscopic analysis; assay type: ADME, cell-based; conditions: mda-mb-231, 6 h
[19] = Drug uptake in nucleus of human MDA-MB-231 cells assessed as doxorubicin moiety level at 5 uM preincubated for 24 hrs followed by exposure to 5 Gy linear X-ray measured at 24 hrs by DAPI staining-based fluorescence microscopic analysis; assay type: ADME, cell-based; conditions: mda-mb-231, 24 h
MDA-MB-231 [20] = assay: Induction of apoptosis in human MDA-MB-231 cells assessed as change in cell morphology at 5 uM preincubated for 24 hrs followed by exposure to 5 Gy linear X-ray measured after 6 to 24 hrs by DAPI staining-based fluorescence microscopic analysis; assay type: functional
MDA-MB-231 [21] = assay: Induction of apoptosis in human MDA-MB-231 cells assessed as upregulation of cleaved caspase-3 expression at 1 to 100 uM pretreated with X-ray measured after 24 to 72 hrs by Western blot analysis; assay type: functional, cell-based
MDA-MB-231 [22] = assay: Induction of apoptosis in human MDA-MB-231 cells assessed as upregulation of cleaved caspase-3 expression preincubated with recombinant human caspase-3 measured after 48 hrs by Western blot analysis; assay type: functional, cell-based
MDA-MB-231 [23] = assay: Induction of apoptosis in human MDA-MB-231 cells assessed as downregulation of procaspase-3 expression at 1 to 100 uM preincubated with recombinant human caspase-3 measured after 48 hrs by Western blot analysis; assay type: functional, cell-based
MDA-MB-231 [24] = assay: Induction of apoptosis in human MDA-MB-231 cells assessed as upregulation of cleaved caspase-3 expression up to 100 uM after 48 hrs by Western blot analysis; assay type: functional, cell-based
[25] = Antitumor activity against mouse SCC7 cells allografted in Balb-c/nu mouse assessed as tumor growth inhibition at 5 mg/kg molar equivalent of doxorubicin, iv administered daily for 7 days without X-ray treatment relative to control; assay type: functional, SCC-7
[26] = Antitumor activity against mouse SCC7 cells allografted in Balb-c/nu mouse assessed as tumor growth inhibition at 5 mg/kg molar equivalent of doxorubicin, iv administered daily for 7 days with 10 Gy X-ray treatment on first day of drug administration (reference value: 54%); assay type: functional, SCC-7
Mus musculus [27] = assay: Toxicity in Balb-c/nu mouse allografted with mouse SCC7 cells assessed as decrease in body weight at 5 mg/kg molar equivalent of doxorubicin, iv administered daily for 7 days with 10 Gy X-ray treatment on first day of drug administration measured until day 14; assay type: organism-based, SCC-7; conditions: in vivo, 168 h
Mus musculus [28] = assay: Toxicity in Balb-c/nu mouse allografted with mouse SCC7 cells assessed as decrease in body weight at 5 mg/kg molar equivalent of doxorubicin, iv administered daily for 7 days without X-ray treatment measured until day 14; assay type: organism-based, SCC-7; conditions: in vivo, 168 h
Mus musculus [29] = assay: Toxicity in Balb-c/nu mouse allografted with mouse SCC7 cells assessed as mortality at 5 mg/kg molar equivalent of doxorubicin, iv administered daily for 7 days measured until day 14; assay type: organism-based, SCC-7; conditions: in vivo, 168 h
Mus musculus [30] = assay: Toxicity in Balb-c/nu mouse allografted with mouse SCC7 cells assessed as mortality at 5 mg/kg, iv administered daily measured within 6 days; assay type: organism-based, SCC-7; conditions: in vivo, 144 h

SMILES: COc1cccc2c1C(=O)c1c(O)c3c(c(O)c1C2=O)C[C@@](O)(C(=O)CO)C[C@@H]3O[C@H]1C[C@H](NC(=O)C2CCC(CN3C(=O)CC(SCCN)C3=O)CC2)[C@H](O)[C@H](C)O1 (some centres not stated)
- Activity (MDA-MB-231 [1]): Dose-dependent effect
- IC50 (MDA-MB-231 [1]): > 100 µM
- Drug uptake [2]: Active
- Drug uptake [3]: Active
- logP at 3 h [4]: -0.022

SMILES: COc1cccc2c1C(=O)c1c(O)c3c(c(O)c1C2=O)C[C@@](O)(C(=O)CO)C[C@@H]3O[C@H]1C[C@H](NC(=O)CCCCCN2C(=O)CC(SCCN)C2=O)[C@H](O)[C@H](C)O1 (some centres not stated)
- IC50 (MDA-MB-231 [1]): 4.6 µM
- Drug uptake [2]: Active
- Retention_time [5]: 20.6 min
- logP at 3 h [4]: -0.383
- Activity (MDA-MB-231 [6]): Dose-dependent effect
- Activity (MDA-MB-231 [7]): Active

SMILES: COc1cccc2c1C(=O)c1c(O)c3c(c(O)c1C2=O)C[C@@](O)(C(=O)CO)C[C@@H]3O[C@H]1C[C@H](NC(=O)c2cccc(N3C(=O)CC(SCCN)C3=O)c2)[C@H](O)[C@H](C)O1 (some centres not stated)
- IC50 (MDA-MB-231 [1]): > 100 µM
- Drug uptake [2]: Active
- Drug uptake [3]: Active
- logP at 3 h [4]: -0.121

SMILES: COc1cccc2c1C(=O)c1c(O)c3c(c(O)c1C2=O)C[C@@](O)(C(=O)CO)C[C@@H]3O[C@H]1C[C@H](NC(=O)CCCc2ccc(N3C(=O)CC(SCCN)C3=O)cc2)[C@H](O)[C@H](C)O1 (some centres not stated)
- IC50 (MDA-MB-231 [1]): > 100 µM
- Drug uptake [2]: Active
- Drug uptake [3]: Active
- logP at 3 h [4]: 0.313

SMILES: COc1cccc2c1C(=O)c1c(O)c3c(c(O)c1C2=O)C[C@@](O)(C(=O)CO)C[C@@H]3O[C@H]1C[C@H](NC(=O)CN2C(=O)CC(SCCN)C2=O)[C@H](O)[C@H](C)O1 (some centres not stated)
- IC50 (MDA-MB-231 [1]): > 100 µM
- Drug uptake [2]: Active
- Drug uptake [3]: Active
- logP at 3 h [4]: -1.04

SMILES: COc1cccc2c1C(=O)c1c(O)c3c(c(O)c1C2=O)C[C@@](O)(C(=O)CO)C[C@@H]3O[C@H]1C[C@H](NC(=O)CCCCCN2C(=O)CC(SCCNC(=O)[C@H](CC(=O)O)NC(=O)[C@@H](NC(=O)[C@H](CCC(=O)O)NC(=O)[C@H](CC(=O)O)NC(=O)[C@@H](N)CCCNC(=N)N)C(C)C)C2=O)[C@H](O)[C@H](C)O1 (some centres not stated) (H-RDEVD[Mal(S(CH2)2NH)(CH2)5CO]-{Doxorubicin(3'-N)})
- Drug uptake [2]: Active
- Drug uptake [3]: Active
- Retention_time [8]: 21.4 min
- Drug metabolism [9]: metabolite_notdetected
- Stability [10]: Unstable
- Drug metabolism (Caspase-3): metabolite_notdetected
- Activity (MDA-MB-231 [11]): inactive
- Activity (MDA-MB-231 [12]): Active
- Activity (MDA-MB-231 [13]): Active
- Drug uptake [14]: Active
- Drug uptake [15]: Active
- Activity (MDA-MB-231 [16]): inactive
- Activity (MDA-MB-231 [17]): 75%
- Drug uptake [18]: Not Active
- Drug uptake [19]: Active
- Activity (MDA-MB-231 [20]): Active
- Activity (MDA-MB-231 [21]): Active
- Activity (MDA-MB-231 [22]): Dose-dependent effect
- Activity (MDA-MB-231 [23]): Active
- Activity (MDA-MB-231 [24]): inactive
- TGI [25]: 15%
- TGI [26]: 79%
- Activity (Mus musculus [27]): Non-toxic
- Activity (Mus musculus [28]): Non-toxic
- Activity (Mus musculus [29]): Non-toxic

SMILES: COc1cccc2c1C(=O)c1c(O)c3c(c(O)c1C2=O)C[C@@](O)(C(=O)CO)C[C@@H]3O[C@H]1CC(NC(=O)C2CCC(CN3C(=O)CC(SC[C@H](N)C(=O)O)C3=O)CC2)[C@H](O)[C@H](C)O1 (single isomer, unassigned)
- Drug uptake [2]: Not Active
- Drug uptake [3]: Active

SMILES: COc1cccc2c1C(=O)c1c(O)c3c(c(O)c1C2=O)C[C@@](O)(C(=O)CO)C[C@@H]3O[C@H]1C[C@H](N)[C@H](O)[C@H](C)O1 [DOXORUBICIN]
- Drug uptake [2]: Active
- Activity (Mus musculus [30]): Toxic
